Structures are written as SMILES.

Experiment [1] addresses RspA-splitFAST (assembled NC complex; FRB-RspA(N) + FKBP-RspA(C)). Particulars: read-out: Kd,F/C; […] each FRB-N and FKBP-C preassembled with […] rapamycin.
For a further experiment, the target named is RspA-FAST. Particulars: PBS pH […] presumably; details in supplement.
The target of another experiment is TsiA-FAST. Particulars: PBS pH […] presumably; details in supplement.

As for `Cc1cc(/C=C2\SC(=S)NC2=O)ccc1O` [HMBR], the Kd in experiment [1] was 150 ± 10 nM. Take `COc1cc(/C=C2\SC(=S)NC2=O)cc(OC)c1O` [HBR-3,5DOM]: the Kd came to 74 nM on RspA-FAST and 60 nM at TsiA-FAST.

Source of the values: publication doi:10.1101/2023.08.31.555680v1 (biorxiv, 2023).
